According to patent US8809554B2, “Process for the preparation of sulfamide derivatives” (Janssen Pharmaceutica NV, priority 2011, dated 2014):
“And” between values parts separate entries of the source, which are not always exact repeats. Identical values can stand only once.

Assay: Solubility of the compound of formula (I-S) in toluene as a function of OPPh3 concentration
Assay type: physicochemical
Settings: 21° C.

For NS(=O)(=O)NC[C@H]1COc2cc(Cl)ccc2O1 [compound of formula (I-S), N-[[(2S)-6-chloro-2,3-dihydro-1,4-benzodioxin-2-yl]methyl]-sulfamide], the “Solubility (g/100 g toluene)” value (OPPH3 0.05 mol/L) was 1.6 g/100 g toluene, the “Solubility (g/100 g toluene)” value (OPPH3 0.10 mol/L) was 2.3 g/100 g toluene and the “Solubility (g/100 g toluene)” value (OPPH3 0.15 mol/L) was 4.2 g/100 g toluene. The “Solubility (g/100 g toluene)” value (OPPH3 0.20 mol/L) was 5.9 g/100 g toluene and 5.0 g/100 g toluene, the “Solubility (g/100 g toluene)” value (OPPH3 0.25 mol/L) was 6.0 g/100 g toluene and the “Solubility (g/100 g toluene)” value (OPPH3 0.30 mol/L) was 8.2 g/100 g toluene. For the same molecule, the “Solubility (g/100 g toluene)” value (OPPH3 0.40 mol/L) was 9.6 g/100 g toluene and the “Solubility, trend with OPPh3 concentration” value (OPPh3 0.05-0.40 mol/L) was “increases with increased OPPh3 concentration”.
